Assay [1] has as its target T1, wtEGFR (Homo sapiens, UniProt P00533).
T1 construct: purchased Invitrogen PR7295B
Briefly: HotSpot radiometric kinase activity assay, wtEGFR. Particulars: biochemical activity, 4 nM wtEGFR, 10 μM 33P-ATP, 2 hours, read-out: EGFR WT IC50. As to the method:
(§1) The purpose of the wtERBB2, ERBB2-A775_G776insYVMA (ERBB2YVMA), wtEGFR biochemical assay was to evaluate the inhibition (% inhibition and IC50 values) of the small molecule inhibitors by using the “HotSpot” radiometric kinase activity assay. HotSpot assays monitor the production of kinase substrate by the radioactive gamma phosphate of adenosine triphosphate (33P-ATP) during biochemical reactions. HotSpot assays was performed in steps upon completion of the kinase reaction: deposition of a reaction mixture aliquot onto P81 ion exchange paper, extensive washing of the aforementioned P81 paper using phosphoric acid to remove unbound radiolabeled 33P-ATP from the P81 paper, and finally visualization and quantification of the dried P81 paper utilizing a phosphoimager. […] Typical reaction solutions (10 μL, final reaction volume) contained the following buffer conditions: 20 mM Hepes (pH 7.5), 10 mM MgCl2, 1 mM EGTA, 0.01% Brij35, 0.02 mg/mL BSA, 0.1 mM Na3VO4, 2 mM DTT, 1% DMSO. The assay was primed by preparing a fresh 0.2 mg/mL solution of pEY (Sigma Cat: P7244) substrate in the reaction buffer and supplementing that solution with […] of MnCl2 as substrate cofactor (Sigma Cat: M9522). The kinase of interest was then added to the solution at the appropriate concentration (30 nM wtERBB2 from, or 20 nM ERBB2YVMA, or 4 nM wtEGFR) and gently mixed prior to delivery of compound in 100% DMSO by acoustic dispensing (Beckman Echo550). Compound, Kinase, and substrate were allowed to incubate for 20 min at room temperature prior to the initiation of the reaction by addition of 33P-ATP (PerkinElmer Cat: NEG602, final conc 10 μM). […] IC50 determinations were made from a plot of kinase activity as a function of inhibitor concentration fit to the 4-parameter IC50 equation with the enzyme concentration held constant using GraphPad Prism (San Diego).

Assay [2] concerns the target BaF3_HER2YVMA cells (Homo sapiens, UniProt P04626, DUP772-775, cells depend on it). Description: Cell growth inhibition assay (CellTiterGlo), BaF3_HER2YVMA. Particulars: 3-day treatment, CellTiterGlo, read-out: Cell growth inhibition activity, HER2 - YVMA. The class given is cell-based.
Assay [3] addresses T2, ERBB2-A775_G776insYVMA (ERBB2YVMA) (Homo sapiens, UniProt P04626, INS775YVMA).
T2 construct: purchased SignalChem E27-13BG
Briefly: HotSpot radiometric kinase activity assay, ERBB2YVMA. As to conditions: biochemical activity, 20 nM ERBB2YVMA, 10 μM 33P-ATP, 2 hours, read-out: HER2 - YVMA IC50. As to the method:
as §1

In assay [4] the target is BaF3_EGFRWT cells (Homo sapiens, UniProt P00533). Briefly: Cell growth inhibition assay (CellTiterGlo), BaF3_EGFRWT. The class given is cell-based. As to conditions: 3-day treatment, CellTiterGlo, read-out: Cell growth inhibition activity, EGFR WT.
BaF3_EGFRWT cells, sequence (P00533 whole entry, change not shown): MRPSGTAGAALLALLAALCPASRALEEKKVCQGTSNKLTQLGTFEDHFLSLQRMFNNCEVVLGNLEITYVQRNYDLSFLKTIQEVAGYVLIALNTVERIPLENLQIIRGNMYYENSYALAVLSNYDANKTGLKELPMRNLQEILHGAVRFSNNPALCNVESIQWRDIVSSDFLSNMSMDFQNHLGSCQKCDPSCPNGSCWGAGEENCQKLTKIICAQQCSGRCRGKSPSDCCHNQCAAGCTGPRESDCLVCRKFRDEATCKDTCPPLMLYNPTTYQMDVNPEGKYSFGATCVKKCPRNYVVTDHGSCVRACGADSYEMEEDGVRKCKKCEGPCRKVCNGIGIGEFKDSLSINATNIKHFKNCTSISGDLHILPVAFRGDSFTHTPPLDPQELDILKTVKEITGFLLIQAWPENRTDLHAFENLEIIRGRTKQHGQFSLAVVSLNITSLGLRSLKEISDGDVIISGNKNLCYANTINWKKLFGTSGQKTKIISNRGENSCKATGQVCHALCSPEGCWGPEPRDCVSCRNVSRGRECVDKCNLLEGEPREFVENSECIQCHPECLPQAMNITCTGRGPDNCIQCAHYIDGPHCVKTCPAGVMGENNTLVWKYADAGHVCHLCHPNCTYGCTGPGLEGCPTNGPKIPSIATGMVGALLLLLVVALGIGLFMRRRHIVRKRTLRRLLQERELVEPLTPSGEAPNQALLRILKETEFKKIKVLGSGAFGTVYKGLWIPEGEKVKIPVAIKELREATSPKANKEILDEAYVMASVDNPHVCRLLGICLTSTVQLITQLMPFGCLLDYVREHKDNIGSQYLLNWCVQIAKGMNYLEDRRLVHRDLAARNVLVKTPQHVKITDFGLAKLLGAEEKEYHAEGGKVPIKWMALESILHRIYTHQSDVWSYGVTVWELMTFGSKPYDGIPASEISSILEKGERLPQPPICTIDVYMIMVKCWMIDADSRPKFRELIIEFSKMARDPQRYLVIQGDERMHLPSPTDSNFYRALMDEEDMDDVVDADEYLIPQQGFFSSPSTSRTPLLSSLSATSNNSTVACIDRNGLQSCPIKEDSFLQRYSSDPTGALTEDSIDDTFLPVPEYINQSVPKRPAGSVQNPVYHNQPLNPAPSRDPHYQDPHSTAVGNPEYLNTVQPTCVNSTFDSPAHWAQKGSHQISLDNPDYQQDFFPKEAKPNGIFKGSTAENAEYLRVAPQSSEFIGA
The target of assay [5] is BaF3_HER2WT cells (Homo sapiens, UniProt P04626). Briefly: Cell growth inhibition assay (CellTiterGlo), BaF3_HER2WT. The class given is cell-based. As to conditions: 3-day treatment, CellTiterGlo, read-out: Cell growth inhibition activity, HER2 WT.
BaF3_HER2WT cells, sequence (P04626 whole entry, change not shown): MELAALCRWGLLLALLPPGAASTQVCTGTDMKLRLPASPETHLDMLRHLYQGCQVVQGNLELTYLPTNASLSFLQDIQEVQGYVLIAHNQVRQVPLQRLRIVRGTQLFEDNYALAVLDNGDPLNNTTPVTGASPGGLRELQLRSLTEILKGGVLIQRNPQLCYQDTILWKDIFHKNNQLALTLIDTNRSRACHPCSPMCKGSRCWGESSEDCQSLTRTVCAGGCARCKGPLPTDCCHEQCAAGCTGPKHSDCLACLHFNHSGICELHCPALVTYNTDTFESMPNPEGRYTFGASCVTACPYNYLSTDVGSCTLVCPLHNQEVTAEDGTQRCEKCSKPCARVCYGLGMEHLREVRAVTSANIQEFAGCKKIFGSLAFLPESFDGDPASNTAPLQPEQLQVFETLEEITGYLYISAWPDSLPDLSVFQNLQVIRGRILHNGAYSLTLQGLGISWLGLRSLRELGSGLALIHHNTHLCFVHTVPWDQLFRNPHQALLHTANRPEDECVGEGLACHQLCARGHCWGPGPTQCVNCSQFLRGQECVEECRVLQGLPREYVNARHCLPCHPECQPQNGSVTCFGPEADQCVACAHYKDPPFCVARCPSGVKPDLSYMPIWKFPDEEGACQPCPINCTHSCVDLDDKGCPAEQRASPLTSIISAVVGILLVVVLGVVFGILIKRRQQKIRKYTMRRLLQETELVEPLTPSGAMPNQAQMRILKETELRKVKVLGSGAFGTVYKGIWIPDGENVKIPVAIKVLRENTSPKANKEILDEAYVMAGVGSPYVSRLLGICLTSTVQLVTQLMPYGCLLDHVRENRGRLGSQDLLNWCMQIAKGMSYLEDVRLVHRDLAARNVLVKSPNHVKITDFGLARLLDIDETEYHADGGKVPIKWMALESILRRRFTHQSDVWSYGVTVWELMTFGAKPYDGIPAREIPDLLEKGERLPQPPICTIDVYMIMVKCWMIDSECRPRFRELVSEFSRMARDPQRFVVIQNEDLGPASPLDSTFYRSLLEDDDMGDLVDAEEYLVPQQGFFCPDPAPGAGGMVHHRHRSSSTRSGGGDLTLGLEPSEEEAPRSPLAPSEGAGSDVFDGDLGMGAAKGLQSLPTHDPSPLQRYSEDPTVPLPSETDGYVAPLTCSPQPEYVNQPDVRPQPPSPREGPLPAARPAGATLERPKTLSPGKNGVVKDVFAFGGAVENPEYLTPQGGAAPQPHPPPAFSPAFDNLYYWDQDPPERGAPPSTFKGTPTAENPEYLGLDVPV

A value given as a limit tells only on which side of the number the result lay.

BaF3_HER2YVMA cells, sequence (P04626 with tags, fused parts or gaps DUP772-775): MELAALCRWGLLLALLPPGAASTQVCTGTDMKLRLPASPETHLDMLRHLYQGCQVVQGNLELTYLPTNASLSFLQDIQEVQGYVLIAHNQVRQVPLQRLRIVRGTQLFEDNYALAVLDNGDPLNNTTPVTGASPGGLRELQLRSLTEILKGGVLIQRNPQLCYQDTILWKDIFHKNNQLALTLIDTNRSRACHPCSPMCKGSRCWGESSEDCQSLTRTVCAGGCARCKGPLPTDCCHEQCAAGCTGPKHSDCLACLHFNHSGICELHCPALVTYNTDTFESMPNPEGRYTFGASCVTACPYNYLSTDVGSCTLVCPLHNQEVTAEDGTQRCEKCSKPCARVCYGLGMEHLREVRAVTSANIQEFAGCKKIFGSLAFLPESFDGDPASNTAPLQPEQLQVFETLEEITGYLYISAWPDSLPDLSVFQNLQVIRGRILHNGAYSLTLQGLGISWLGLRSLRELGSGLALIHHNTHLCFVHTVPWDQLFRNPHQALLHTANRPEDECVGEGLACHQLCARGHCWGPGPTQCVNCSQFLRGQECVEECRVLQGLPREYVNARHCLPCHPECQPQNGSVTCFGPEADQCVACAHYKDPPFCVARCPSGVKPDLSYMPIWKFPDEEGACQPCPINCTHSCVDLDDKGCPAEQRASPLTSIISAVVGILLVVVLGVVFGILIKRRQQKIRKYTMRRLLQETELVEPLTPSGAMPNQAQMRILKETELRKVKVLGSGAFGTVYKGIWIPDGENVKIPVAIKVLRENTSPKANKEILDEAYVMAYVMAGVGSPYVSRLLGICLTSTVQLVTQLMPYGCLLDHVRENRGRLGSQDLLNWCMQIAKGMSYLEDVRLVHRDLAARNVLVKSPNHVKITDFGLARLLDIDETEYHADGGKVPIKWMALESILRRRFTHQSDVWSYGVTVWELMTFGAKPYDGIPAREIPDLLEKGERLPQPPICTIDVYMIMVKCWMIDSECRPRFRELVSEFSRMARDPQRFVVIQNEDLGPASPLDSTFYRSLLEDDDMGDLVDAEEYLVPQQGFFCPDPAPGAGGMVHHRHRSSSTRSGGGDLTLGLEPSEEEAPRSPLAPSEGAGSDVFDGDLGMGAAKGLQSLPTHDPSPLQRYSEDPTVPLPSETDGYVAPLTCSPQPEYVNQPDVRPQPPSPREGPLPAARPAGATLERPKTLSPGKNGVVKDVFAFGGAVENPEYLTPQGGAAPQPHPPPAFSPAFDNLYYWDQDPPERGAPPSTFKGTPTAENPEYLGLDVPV
T2 sequence (P04626 with tags, fused parts or gaps INS775YVMA limits assumed): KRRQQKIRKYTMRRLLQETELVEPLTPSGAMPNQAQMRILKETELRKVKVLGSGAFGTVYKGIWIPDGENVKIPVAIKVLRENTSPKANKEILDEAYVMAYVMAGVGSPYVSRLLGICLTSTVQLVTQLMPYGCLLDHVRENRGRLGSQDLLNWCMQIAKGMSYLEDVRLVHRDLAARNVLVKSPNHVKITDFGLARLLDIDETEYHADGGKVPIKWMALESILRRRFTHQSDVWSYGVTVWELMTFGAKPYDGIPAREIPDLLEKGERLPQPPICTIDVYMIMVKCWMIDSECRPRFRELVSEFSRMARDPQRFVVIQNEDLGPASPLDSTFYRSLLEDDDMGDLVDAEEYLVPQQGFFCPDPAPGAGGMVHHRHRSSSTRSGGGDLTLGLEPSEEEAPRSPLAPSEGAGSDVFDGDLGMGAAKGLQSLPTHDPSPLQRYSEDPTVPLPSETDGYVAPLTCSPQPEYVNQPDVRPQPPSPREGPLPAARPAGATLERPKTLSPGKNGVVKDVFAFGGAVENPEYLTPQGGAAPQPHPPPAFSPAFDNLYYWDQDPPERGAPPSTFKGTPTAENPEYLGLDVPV

As for `Cc1cc(Nc2ncnn3ccc(C4CCN(C(=O)/C=C/CN(C)C)C4)c23)ccc1Oc1ccn2ncnc2c1` (single isomer, unassigned) [Example 100], the IC50 in assay [1] was in the range of 1.5 to 5 µM.
Turning to `Cc1cc(Nc2ncnn3ccc(C4CCCN(C(=O)/C=C/CN(C)C)C4)c23)ccc1Oc1ccn2ncnc2c1` (single isomer, unassigned) [Example 107], in assay [1], the IC50 lay within 0.5 to 1.5 µM.
As to `Cc1cc(Nc2ncnn3ccc(C4CCCN(C(=O)/C=C/CN(C)C)C4)c23)ccc1Oc1ccn2ncnc2c1` (single isomer, unassigned) [Example 108], the IC50 in assay [1] lay within 1.5 to 5 µM.
As for `Cc1cc(Nc2ncnn3ccc(C4CCCN(C(=O)/C=C/CN(C)C)CC4)c23)ccc1Oc1ccn2ncnc2c1` (single isomer, unassigned) [Example 110], the IC50 in assay [1] was 0.2 to 0.5 µM.
For `C=CC(=O)NC1CCN(C(=O)c2ccn3ncnc(Nc4ccc(Oc5ccn6ncnc6c5)c(C)c4)c23)CC1` [Example 5, N-(1-(4-((4-([1,2,4]triazolo[1,5-a]pyridin-7-yloxy)-3-methylphenyl)amino)pyrrolo[2,1-f][1,2,4]triazine-5-carbonyl)piperidin-4-yl)acrylamide], the GI50 in assay [2] was 0.2 to 0.5 µM; in assay [4], 1.5 to 5 µM; in assay [5], less than 0.2 µM. The IC50 in assay [3] is 0.2 to 0.5 µM; in assay [1], 1.5 to 5 µM.
Take `C=CC(=O)N1CCC(c2ccn3ncnc(Nc4ccc(Oc5ccn6ncnc6c5)c(C)c4)c23)C1` (stereo not shown) [Example 11, 1-(3-(4-((4-([1,2,4]triazolo[1,5-a]pyridin-7-yloxy)-3-methylphenyl)amino)pyrrolo[2,1-f][1,2,4]triazin-5-yl)pyrrolidin-1-yl)prop-2-en-1-one]: the GI50 in assay [2] was less than 0.2 µM; in assay [4], 1.5 to 5 µM; in assay [5] it was less than 0.2 µM. Further, the values for the IC50 in assay [3] and in assay [1] were less than 0.2 µM and 0.5 to 1.5 µM, respectively.
As to `C=CC(=O)NCCn1cc(-c2ccn3ncnc(Nc4ccc(Oc5ccn6ncnc6c5)c(C)c4)c23)cn1` [Example 13, N-(2-(4-(4-((4-([1,2,4]triazolo[1,5-a]pyridin-7-yloxy)-3-methylphenyl)amino)pyrrolo[2,1-f][1,2,4]triazin-5-yl)-1H-pyrazol-1-yl)ethyl)acrylamide], the GI50 in assay [2] was 0.2 to 0.5 µM; in assay [4], 1.5 to 5 µM; in assay [5] it was less than 0.2 µM. Further, the IC50 in assay [3] was less than 0.2 µM; in assay [1], 1.5 to 5 µM.
With `C=CC(=O)NC1CN(c2ccn3ncnc(Nc4ccc(Oc5ccn6ncnc6c5)c(C)c4)c23)C1` [Example 14, N-(1-(4-((4-([1,2,4]triazolo[1,5-a]pyridin-7-yloxy)-3-methylphenyl)amino)pyrrolo[2,1-f][1,2,4]triazin-5-yl)azetidin-3-yl)acrylamide], the GI50 in assay [2] was less than 0.2 µM; in assay [4] it was 1.5 to 5 µM; in assay [5], less than 0.2 µM. In addition, the IC50 in assay [3] is less than 0.2 µM; in assay [1], 0.2 to 0.5 µM.
Turning to `C=CC(=O)N1CC2(C1)CN(c1ccn3ncnc(Nc4ccc(Oc5ccn6ncnc6c5)c(C)c4)c13)C2` [Example 16, 1-(6-(4-((4-([1,2,4]triazolo[1,5-a]pyridin-7-yloxy)-3-methylphenyl)amino)pyrrolo[2,1-f][1,2,4]triazin-5-yl)-2,6-diazaspiro[3.3]heptan-2-yl)prop-2-en-1-one], the GI50 lay within 0.5 to 1.5 µM in assay [2], 1.5 to 5 µM in assay [4] and 0.2 to 0.5 µM in assay [5]. Further, the IC50 in assay [3] was less than 0.2 µM; in assay [1], 1.5 to 5 µM.
Turning to `C=C(F)C(=O)NC1CN(c2ccn3ncnc(Nc4ccc(Oc5ccn6ncnc6c5)c(C)c4)c23)C1` [Example 18, N-(1-(4-((4-([1,2,4]triazolo[1,5-a]pyridin-7-yloxy)-3-methylphenyl)amino)pyrrolo[2,1-f][1,2,4]triazin-5-yl)azetidin-3-yl)-2-fluoroacrylamide], the GI50 in assay [2] fell in the range of 0.5 to 1.5 µM; in assay [4] it was 1.5 to 5 µM; in assay [5], 0.2 to 0.5 µM. Besides, the IC50 in assay [3] is less than 0.2 µM; in assay [1] it was 1.5 to 5 µM.
Consider `C=C(F)C(=O)N1CC(n2cc(-c3ccn4ncnc(Nc5ccc(Oc6ccn7ncnc7c6)c(C)c5)c34)cn2)C1` [Example 19, 1-(3-(4-(4-((4-([1,2,4]triazolo[1,5-a]pyridin-7-yloxy)-3-methylphenyl)amino)pyrrolo[2,1-f][1,2,4]triazin-5-yl)-1H-pyrazol-1-yl)azetidin-1-yl)-2-fluoroprop-2-en-1-one], for which the GI50 is 0.5 to 1.5 µM in assay [2], 1.5 to 5 µM in assay [4] and 0.2 to 0.5 µM in assay [5]. Besides, the IC50 is 0.2 to 0.5 µM in assay [3] and 1.5 to 5 µM in assay [1].
For `Cc1cc(Nc2ncnn3ccc(N4CCN(C(=O)/C=C/CN(C)C)CC4)c23)ccc1Oc1ccn2ncnc2c1` [Example 22, (E)-1-(4-(4-((4-([1,2,4]triazolo[1,5-a]pyridin-7-yloxy)-3-methylphenyl)amino)pyrrolo[2,1-f][1,2,4]triazin-5-yl)piperazin-1-yl)-4-(dimethylamino)but-2-en-1-one], the GI50 in assay [2] is less than 0.2 µM; in assay [4] it was 1.5 to 5 µM; in assay [5], less than 0.2 µM. Further, the figures for the IC50 in assay [3] and in assay [1] were less than 0.2 µM and 0.5 to 1.5 µM, respectively.
As to `Cc1cc(Nc2ncnn3ccc(C4CN(C(=O)/C=C/CN5CCCCC5)C4)c23)ccc1Oc1ccn2ncnc2c1` [Example 94, (E)-1-(3-(4-((4-([1,2,4]triazolo[1,5-a]pyridin-7-yloxy)-3-methylphenyl)amino)pyrrolo[2,1-f][1,2,4]triazin-5-yl)azetidin-1-yl)-4-(piperidin-1-yl)but-2-en-1-one], the GI50 in assay [2] is less than 0.2 µM; in assay [4], 1.5 to 5 µM; in assay [5], less than 0.2 µM. For the same molecule, the half-maximal inhibitory concentration (IC50) in assay [3] is less than 0.2 µM.
In the case of `Cc1cc(Nc2ncnn3ccc(C4CN(C(=O)/C=C/CN5CCCC5)C4)c23)ccc1Oc1ccn2ncnc2c1` [Example 97, (E)-1-(3-(4-((4-([1,2,4]triazolo[1,5-a]pyridin-7-yloxy)-3-methylphenyl)amino)pyrrolo[2,1-f][1,2,4]triazin-5-yl)azetidin-1-yl)-4-(pyrrolidin-1-yl)but-2-en-1-one], the GI50 in assay [2] was less than 0.2 µM; in assay [4], 1.5 to 5 µM; in assay [5], less than 0.2 µM. The concentration for half-maximal inhibition (IC50) in assay [3] is less than 0.2 µM.
For the molecule `Cc1cc(Nc2ncnn3ccc(C4CCN(C(=O)/C=C/CN(C)C)C4)c23)ccc1Oc1ccn2ncnc2c1` (stereo not shown) [Example 98, (E)-1-(3-(4-((4-([1,2,4]triazolo[1,5-a]pyridin-7-yloxy)-3-methylphenyl)amino)-pyrrolo-[2,1-f][1,2,4]triazin-5-yl)pyrrolidin-1-yl)-4-(dimethylamino)but-2-en-1-one], the GI50 in assay [2] was 0.2 to 0.5 µM; in assay [4], 1.5 to 5 µM; in assay [5], less than 0.2 µM. For the same molecule, the IC50 in assay [3] was less than 0.2 µM.
On to `Cc1cc(Nc2ncnn3ccc(C4CN(C(=O)/C=C/CN(C)C)C4)c23)ccc1Oc1ccc2c(c1)ncn2C` [Example 101, (E)-4-(dimethylamino)-1-(3-(4-((3-methyl-4-((1-methyl-1H-benzo[d]imidazol-5-yl)oxy)phenyl)amino)pyrrolo[2,1-f][1,2,4]triazin-5-yl)azetidin-1-yl)but-2-en-1-one], for which the GI50 in assay [2] is less than 0.2 µM; in assay [4], 1.5 to 5 µM; in assay [5], less than 0.2 µM. For the same molecule, in assay [3], the IC50 was less than 0.2 µM.
Take `C=CC(=O)N1CCC(c2ccn3ncnc(Nc4ccc(Oc5ccc6c(c5)ncn6C)c(C)c4)c23)CC1` [Example 113, 1-(4-(4-((3-methyl-4-((1-methyl-1H-benzo[d]imidazol-5-yl)oxy)phenyl)amino)pyrrolo[2,1-f][1,2,4]triazin-5-yl)piperidin-1-yl)prop-2-en-1-one]: the GI50 is less than 0.2 µM in assay [2], 0.5 to 1.5 µM in assay [4] and less than 0.2 µM in assay [5]. The IC50 in assay [3] is less than 0.2 µM.

The values above are taken from patent US20240132521A1, “COMPOUNDS AND METHODS FOR MODULATING HER2” (Iambic Therapeutics, Inc., priority 2022, published 2024).
